Assay results from patent US10595542B2, “Method for producing Swiss-type cheese” (CSK Food Enrichment B.V., priority 2014, dated 2020).

Legend:
[1] = system: Propionibacteria freudenreichii DPC 2241; assay: MIC value determination, 96 wells microtitre plate; type: cell-based, Propionibacterium freudenreichii; details: strain DPC 2241; SLA medium, 30° C. anaerobically 19-24 hours; average of triplicate
Procedure: (§1) The dairy Propionibacteria that are comprised in the starter culture according to the invention are preferably characterized by having a MIC value of 5 mg or higher, more preferably 10 mg or higher, even more preferably 25 mg or higher, even more preferably 50 mg or higher, most preferably even 100 mg or higher for lacticin 3147 per litre of growth medium. Herein, the term MIC has its common meaning of “minimal inhibitory concentration” and is the lowest concentration of an antimicrobial (in the present case lacticin 3147) that will inhibit the visible growth of a microorganism after overnight incubation. MIC values for lacticin 3147 or other bacteriocins are typically determined according to the following test: Propionibacterium strains are grown from an individual colony for 2-3 nights (SLA, 30° C., anaerobically) until turbid. 3% inoculum is subbed into fresh SLA medium and incubated for approx. 7 hours until OD600 0.5 is reached. Of the resulting culture, 10^5 cfu/ml is inoculated into 96 wells microtitreplates containing fresh SLA medium comprising lacticin 3147, or other bacteriocin, ranging in concentrations from 100 mg/L to 0.01 mg/L (high concentrations to the left, low concentrations to the right). Growth following incubation at 30° C. anaerobically for 19-24 hours is visually evaluated by inspecting turbidity from left to right. MIC values are determined according to the last well where no visible growth is observed (average of triplicate determinations). The above protocol under appropriate growth conditions can be used to obtain MIC values of other strains, e.g. of Lactoabacilli, Clostridia, etc., against lacticin 3147 or other bacteriocins such as nisin. […] At the same time MIC values against nisin were at least 20 times lower.
(§2) MIC values were determined according to a protocol from UCC & Piper et al., J. Antimicrob. Chemother. 2009, 61(3), 546. The protocol was adapted for 96 wells mictrotitre plate screening. Indicator strains Lb. delbrueckii ssp. lactis, C99 (commercially available ex CSK Food Enrichment CV) and Propionibacterium freudenreichii, C21 (commercially available ex CSK Food Enrichment CV) were used. Growth media were MRS for C99, sodium lactate agar (SLA) for C21.
(§3) MIC value determination of propionibacteria against lacticin was performed according to the following procedure: Propionibacterium strains were grown, from an individual colony, for 2-3 nights (SLA, 30 deg C., anaerobically) until turbid. 3% inoculum was subbed into fresh SLA medium and incubated for approx. 7 hours until OD600 0.5 was reached. Of the resulting culture, 10^5 cfu/ml was inoculated into 96 wells microtitreplates containing fresh SLA medium comprising lacticin 3147 ranging in concentrations from 100 mg/L to 0.01 mg/L (high concentrations to the left, low concentrations to the right). Visually evaluated growth following incubation at 30° C. anaerobically for 19-24 hours, by inspecting turbidity from left to right (i.e. starting at the highest lacticin concentrations). MIC values were determined according to the last well where no visible growth is observed (average of triplicate determinations). MIC values against nisin have be obtained similarly.

[2] = system: Propionibacteria freudenreichii CSK 1205; assay: MIC value determination, 96 wells microtitre plate; type: cell-based, Propionibacterium freudenreichii; details: strain CSK 1205; SLA medium, 30° C. anaerobically 19-24 hours; average of triplicate
Procedure: as §1, §2, §3

[3] = system: Propionibacteria freudenreichii DPC 4555; assay: MIC value determination, 96 wells microtitre plate; type: cell-based, Propionibacterium freudenreichii; details: strain DPC 4555; SLA medium, 30° C. anaerobically 19-24 hours; average of triplicate
Procedure: as §1, §2, §3

[4] = system: Propionibacteria freudenreichii CSK code 21; assay: MIC value determination, 96 wells microtitre plate; type: cell-based, Propionibacterium freudenreichii; details: strain CSK code 21; SLA medium, 30° C. anaerobically 19-24 hours; average of triplicate
Procedure: as §1, §2, §3

[5] = system: different strains of C. tyrobutyricum; assay: MIC value determination against C. tyrobutyricum; type: cell-based, Clostridium tyrobutyricum
Procedure: The dairy Propionibacteria that are comprised in the starter culture according to the invention are preferably characterized by having a MIC value of 5 mg or higher, more preferably 10 mg or higher, even more preferably 25 mg or higher, even more preferably 50 mg or higher, most preferably even 100 mg or higher for lacticin 3147 per litre of growth medium. Herein, the term MIC has its common meaning of “minimal inhibitory concentration” and is the lowest concentration of an antimicrobial (in the present case lacticin 3147) that will inhibit the visible growth of a microorganism after overnight incubation. MIC values for lacticin 3147 or other bacteriocins are typically determined according to the following test: Propionibacterium strains are grown from an individual colony for 2-3 nights (SLA, 30° C., anaerobically) until turbid. 3% inoculum is subbed into fresh SLA medium and incubated for approx. 7 hours until OD600 0.5 is reached. […] Growth following incubation at 30° C. anaerobically for 19-24 hours is visually evaluated by inspecting turbidity from left to right. MIC values are determined according to the last well where no visible growth is observed (average of triplicate determinations). […]
MIC values were determined according to a protocol from UCC & Piper et al., J. Antimicrob. […]

[6] = system: Lb. delbrueckii ssp. lactis, C99; assay: MIC value determination of Lactobacilli; type: cell-based, Lactobacillus delbrueckii; details: results not shown
Procedure: as §2
MIC value determination of Lactobacilli against lacticin was performed according to the following procedure: Lactobacillus strains were grown, from an individual colony, overnight (MRS, 37 deg C., anaerobically) until turbid. 3% inoculum was subbed into fresh […] medium and incubated for approx. 7 hours until OD600 0.5 was reached. Of the resulting culture, 10^5 cfu/ml was inoculated into 96 wells microtitreplates containing fresh MRS medium comprising lacticin 3147 ranging in concentrations from 100 mg/L to 0.01 mg/L (high concentrations to the left, low concentrations to the right). Visually evaluated growth following incubation at 37° C. anaerobically for 19-24 hours, by inspecting turbidity from left to right (i.e. starting at the highest lacticin concentrations). MIC values were determined according to the last well where no visible growth is observed (average of triplicate determinations).

Row | Substance | MIC [1] [µg/mL] | MIC [2] [µg/mL] | MIC [3] [µg/mL] | MIC [4] [µg/mL] | MIC values [5] [µg/mL] | lacticin 3147 required to inhibit relative to nisin [6]
1 | nisin [reference compound] | 2.5 | 1.25 | 0.039 | 1.25 | 0.03 to 0.1 | –
2 | lacticin 3147 | >50 | >50 | 8.3 | >50 | 0.4 to 2.5 | Approximately 10 times
